ChEMBL document CHEMBL1136755, “Mapping property distributions of molecular surfaces: algorithm and evaluation of a novel 3D quantitative structure-activity relationship technique” (J Med Chem, 2003)

What was measured:
[1] = molecular target: T1, Muscarinic acetylcholine receptor M2 (Sus scrofa, UniProt P06199); experiment: Ability to dissociate radioligand [3H]NMS from muscarinic acetylcholine receptor M2 of porcine heart
T1 sequence (P06199 whole entry): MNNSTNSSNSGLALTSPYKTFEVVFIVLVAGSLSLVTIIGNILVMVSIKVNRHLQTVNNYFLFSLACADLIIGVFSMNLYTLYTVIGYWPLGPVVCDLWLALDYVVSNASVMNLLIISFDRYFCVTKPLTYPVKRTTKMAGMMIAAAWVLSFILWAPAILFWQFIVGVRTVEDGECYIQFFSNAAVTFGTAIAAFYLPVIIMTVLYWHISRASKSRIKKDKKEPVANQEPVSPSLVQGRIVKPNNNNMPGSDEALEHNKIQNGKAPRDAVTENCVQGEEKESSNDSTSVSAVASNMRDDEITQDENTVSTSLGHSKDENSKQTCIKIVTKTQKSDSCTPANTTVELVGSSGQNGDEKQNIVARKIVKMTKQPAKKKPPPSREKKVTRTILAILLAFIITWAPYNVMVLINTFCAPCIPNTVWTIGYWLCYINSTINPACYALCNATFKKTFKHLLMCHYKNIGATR

[2] = molecular target: T2, Corticosteroid-binding globulin (Homo sapiens) (UniProt P08185)
T2 sequence (whole entry): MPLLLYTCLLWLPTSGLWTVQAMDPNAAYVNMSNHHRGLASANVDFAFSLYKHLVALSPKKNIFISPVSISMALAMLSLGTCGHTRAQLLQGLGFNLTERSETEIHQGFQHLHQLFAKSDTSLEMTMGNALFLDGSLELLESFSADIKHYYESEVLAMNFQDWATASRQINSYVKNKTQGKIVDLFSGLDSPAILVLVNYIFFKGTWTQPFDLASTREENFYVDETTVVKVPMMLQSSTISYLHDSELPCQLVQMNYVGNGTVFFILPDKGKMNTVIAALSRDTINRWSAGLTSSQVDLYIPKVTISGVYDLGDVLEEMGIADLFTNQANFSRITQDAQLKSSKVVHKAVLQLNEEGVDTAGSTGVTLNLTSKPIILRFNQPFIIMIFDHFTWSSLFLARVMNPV
Description: Binding affinity towards corticosteroid-binding globulin (CBG)

Oryctolagus cuniculus = experiment: Eye irritation potential accessed using Draize in vivo rabbit eye irritation test; assay type: functional

## C[N+](C)(CCCCCC[N+](C)(C)CCCN1c2ccccc2C(=O)NC1c1ccccc1)CCCN1c2ccccc2C(=O)NC1c1ccccc1 (stereo not drawn)
[1]
  EC50: 0.741 µM

## C[N+](C)(CCCCCCC[N+](C)(C)CCCN1C(=O)[C@@H]2CCCC[C@H]2C1=O)CCCN1C(=O)[C@H]2CCCC[C@@H]2C1=O
[1]
  EC50: 0.8 µM

## C[C@]12CC[C@H]3[C@@H](CCC4=CC(=O)CC[C@@]43C)[C@@H]1CC[C@@H]2O
[2]
  Log K: 6.72

## C[C@]12C=CC(=O)C=C1CC[C@@H]1[C@@H]2[C@@H](O)C[C@@]2(C)[C@H]1CC[C@]2(O)C(=O)CO
[2]
  Log K: 7.51

## CCC(C)=O [BUTANONE]
Oryctolagus cuniculus
  MES: 4.48

## CC[N+](C)(C)CCCCCC[N+](C)(C)CCCN1C(=O)c2ccccc2C1=O
[1]
  EC50: 10 µM

## CCCCC(CC)CO (stereo not drawn)
Oryctolagus cuniculus
  MES: 7.82

## CCOC(=O)C(C)(C)C
Oryctolagus cuniculus
  MES: 0.63

## C[N+](C)(CCCCCC[N+](C)(C)CCCN1C(=O)CC2c3ccccc3C(C1=O)c1ccccc12)CCCN1C(=O)c2ccccc2C1=O
[1]
  EC50: 0.398 µM

## C[C@]12CCC(=O)C=C1CC[C@@H]1[C@@H]2[C@@H](O)C[C@@]2(C)[C@H]1CC[C@]2(O)C(=O)CO
[2]
  Log K: 7.88

## CCCCCC[N+](C)(C)CCCN1C(=O)c2ccccc2C1=O
[1]
  EC50: 54 µM

## CCCCCCCCCCCC [DODECANE]
Oryctolagus cuniculus
  MES: 0.45

## CC(=O)[C@H]1CC[C@H]2[C@@H]3CCC4=CC(=O)CC[C@]4(C)[C@H]3CC[C@]12C
[2]
  Log K: 7.38

## CCCC(C)CC (stereo not drawn)
Oryctolagus cuniculus
  MES: 0.1

## CC(=O)[C@@]1(O)[C@H](O)C[C@H]2[C@@H]3CCC4=CC(=O)CC[C@]4(C)[C@H]3CC[C@@]21C
[2]
  Log K: 6.25

## COC(C)=O [ACETIC ACID METHYL ESTER]
Oryctolagus cuniculus
  MES: 3.14

## CCOC(=O)C(C)C(C)=O (stereo not drawn)
Oryctolagus cuniculus
  MES: 2.55

## CC(C)CO [ISOBUTANOL]
Oryctolagus cuniculus
  MES: 6.44

## CC(=O)OCC(=O)[C@@]1(O)CC[C@H]2[C@@H]3CCC4=CC(=O)CC[C@]4(C)[C@H]3[C@@H](O)C[C@@]21C
[2]
  Log K: 7.55

## CCC(C)c1ccccc1 (stereo not drawn)
Oryctolagus cuniculus
  MES: 0.31

## Cc1ccc2c(c1)C(=O)N(CCCN(CCCCCCN(CCCN1C(=O)c3ccc(C)cc3C1=O)C1CCCCC1)C1CCCCC1)C2=O
[1]
  EC50: 0.06 µM

## C[N+](C)(CCCCCCC[N+](C)(C)CCCN1C(=O)[C@H]2CC=CC[C@H]2C1=O)CCCN1C(=O)[C@H]2CC=CC[C@H]2C1=O
[1]
  EC50: 2.2 µM

## O=C1c2ccccc2C(=O)N1CCCN(CCCCCCN(CCCc1ccccc1)CCCN1C(=O)c2ccccc2C1=O)CCCc1ccccc1
[1]
  EC50: 0.991 µM

## Cc1ccccc1 [TOLUENE]
Oryctolagus cuniculus
  MES: 0.96

## CC(=O)[C@@]1(O)CC[C@H]2[C@@H]3CCC4=CC(=O)CC[C@]4(C)[C@H]3CC[C@@]21C
[2]
  Log K: 7.74

## CC1CCCC1 [METHYLCYCLOPENTANE]
Oryctolagus cuniculus
  MES: 0.41

## Cc1ccc(C)cc1 [P-XYLENE]
Oryctolagus cuniculus
  MES: 1.1

## CCC(C)(C)C(=O)O [DIMEBUTIC ACID]
Oryctolagus cuniculus
  MES: 5.59

## CC(=O)[C@H]1CC[C@H]2[C@@H]3CCC4=CC(=O)CC[C@]4(C)[C@H]3C(=O)C[C@]12C
[2]
  Log K: 6.78

## CC(=O)CC(C)C [METHYL ISOBUTYL KETONE]
Oryctolagus cuniculus
  MES: 0.59

## CCCCOC(C)=O [ACETIC ACID BUTYL ESTER]
Oryctolagus cuniculus
  MES: 0.99

## C[N+](C)(CCCCCCC[N+](C)(C)CCCN1C(=O)[C@H]2CCCC[C@H]2C1=O)CCCN1C(=O)[C@H]2CCCC[C@H]2C1=O
[1]
  EC50: 4.5 µM

## CCOC(C)=O [ETHYL ACETATE]
Oryctolagus cuniculus
  MES: 1.47

## C=CCCCCCCC=C
Oryctolagus cuniculus
  MES: 0.37

## CC1CC(=O)N(CCC[N+](C)(C)CCCCCCC[N+](C)(C)CCCN2C(=O)CC(C)C2=O)C1=O (stereo not drawn)
[1]
  EC50: 32 µM

## C[N+](C)(CCCCCCO)CCCN1C(=O)c2ccccc2C1=O
[1]
  EC50: 24 µM

## CC(=O)[C@H]1CC[C@H]2[C@@H]3CC=C4C[C@@H](O)CC[C@]4(C)[C@H]3CC[C@]12C
[2]
  Log K: 5.25

## C[C@]12CC[C@H](O)C[C@@H]1CC[C@@H]1[C@@H]2CC[C@]2(C)[C@@H](O)CC[C@@H]12
[2]
  Log K: 5

## C[C@]12CC[C@@H]3c4ccc(O)cc4CC[C@H]3[C@@H]1C[C@@H](O)[C@@H]2O
[2]
  Log K: 5

## C[C@]12CCC(=O)C=C1CC[C@@H]1[C@@H]2CC[C@@]2(C)[C@H]1CC[C@]2(O)C(=O)CO
[2]
  Log K: 7.88

## CCCC(C)C
Oryctolagus cuniculus
  MES: 0.26

## C[N+](C)(CCCCCCC[N+](C)(C)CCCN1C(=O)CCC1=O)CCCN1C(=O)CCC1=O
[1]
  EC50: 151 µM

## Nc1ccc(F)cc1
Oryctolagus cuniculus
  MES: 6.62
